In ChEMBL document CHEMBL2146452, “Creation of readily accessible and orally active analogue of cortistatin a” (ACS Med Chem Lett, 2012):
Activity calls are given as the source filed them. The calls are words filed in the database; no cut-off is given here.

What was measured:
KB 3-1 = test: Selectivity index, ratio of IC50 for human KB3-1 cells to IC50 for HUVEC
[1] = Antiproliferative activity against mouse Neuro2a cells; assay type: cell-based; conditions: N2a
Mus musculus [2] = test: Toxicity in S180 cells xenografted ddY mouse assessed as body weight loss up to 100 mg/kg, po administered QOD for 14 days relative to vehicle-treated control; assay type: organism-based, CCRF S-180; set-up: dose 100 mg/kg, route oral; conditions: in vivo, 336 h
Mus musculus [3] = test: Antiangiogenic activity in ddY mouse assessed as inhibition of bFGF-induced capillary formation in matrigel plug measured as hemoglobin level at 5 to 25 mg/kg, po administered QOD for 10 days by Drabkin reagent-based assay; assay type: functional, organism-based
Mus musculus [4] = test: Toxicity in S180 cells xenografted ddY mouse assessed as diarrhea up to 100 mg/kg, po administered QOD for 14 days; assay type: organism-based, CCRF S-180; set-up: dose 100 mg/kg, route oral; conditions: in vivo, 336 h
CCRF S-180 [5] = test: Antitumor activity against mouse S180 cells xenografted in ddY mouse assessed as tumor growth inhibition at >25 mg/kg, po administered QOD for 14 days relative to vehicle-treated control; assay type: functional
K562 = test: Antiproliferative activity against human K562 cells; assay type: cell-based
[6] = Antiproliferative activity against human KB3-1 cells after 72 hrs by WST8 assay; assay type: cell-based; conditions: KB 3-1, 72 h
NHDF = test: Antiproliferative activity against human NHDF cells; assay type: cell-based
HUVEC = test: Antiproliferative activity against HUVEC after 72 hrs by WST8 assay; assay type: functional, cell-based; conditions: Homo sapiens
CCRF S-180 [7] = test: Antitumor activity against mouse S180 cells xenografted in ddY mouse assessed as tumor growth inhibition at >5 mg/kg, po administered QOD for 14 days relative to vehicle-treated control; assay type: functional, organism-based
CCRF S-180 [8] = test: Antitumor activity against mouse S180 cells xenografted in po dosed ddY mouse assessed as tumor growth inhibition; assay type: functional, organism-based

| IC50 (K562) [µM] | SMILES | Ratio IC50 (KB 3-1) | IC50 [1] [µM] | Activity (Mus musculus [2]) | inhibition (Mus musculus [3]) | Activity (Mus musculus [4]) | growth inhibition (GI) (CCRF S-180 [5]) [%] | IC50 [6] [µM] | IC50 (NHDF) [µM] | IC50 (HUVEC) [µM] | growth inhibition (GI) (CCRF S-180 [7]) | growth inhibition (GI) (CCRF S-180 [8]) |
| --- | --- | --- | --- | --- | --- | --- | --- | --- | --- | --- | --- | --- |
| 5 | C[C@]12CCC3=CC4=C(CCCC4=O)O[C@H]3[C@@H]1CC[C@@H]2c1ccc2ccncc2c1 | >100 | 10.5 | Non-toxic | Active | Non-toxic | 90 | 10.5 | 4 | 0.035 | Active |  |
|  | CN(C)c1ccc(/C=C2/CC[C@@]3(C)[C@@H](CC[C@@H]3c3ccc4ccncc4c3)C2)cc1 | 1.5 |  |  |  |  |  | 20 |  | 15 |  |  |
| 6 | C[C@]12C=CC3=CC4=C(CCCC4=O)O[C@H]3[C@@H]1CC[C@@H]2c1ccc2ccncc2c1 | >100 | 10.5 |  |  |  |  | 10.5 | 10.5 | 0.1 |  | Active |
|  | CN(C)C1CC=C(/C=C2/CC[C@@]3(C)[C@@H](CC[C@@H]3c3ccc4ccncc4c3)C2)CC1 (some centres undefined) | 9 |  |  |  |  |  | 18 |  | 2 |  |  |
